In PubChem BioAssay (NCI):
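Protocol summary: plate cells (96-well), add compound at 5 concentrations, incubate 48 h, interpolate endpoints linearly. At the GI50, growth is halved. TGI marks complete inhibition of growth.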

Key:
Experiment in all cases: growth of human tumour cells (NCI), 48 h
[1] = test system: SW-620 colon
[2] = test system: EKVX NSCLC
[3] = test system: HCT-116 colon
[4] = test system: UACC-62 melanoma
[5] = test system: OVCAR-4 ovarian
[6] = test system: ACHN renal
[7] = test system: CAKI-1 renal
[8] = test system: HL-60(TB) leukemia
[9] = test system: BT-549 breast
[10] = test system: SK-MEL-28 melanoma
[11] = test system: SF-295 CNS
[12] = test system: U251 CNS
[13] = test system: A498 renal
[14] = test system: SNB-75 CNS
[15] = test system: LOX IMVI melanoma
[16] = test system: M14 melanoma
[17] = test system: NCI-H23 lung
[18] = test system: SF-539 CNS
[19] = test system: MOLT-4 leukemia
[20] = test system: SK-OV-3 ovarian
[21] = test system: UACC-257 melanoma
[22] = test system: SK-MEL-5 melanoma
[23] = test system: MDA-MB-231 breast
[24] = test system: RPMI-8226 leukemia
[25] = test system: SR leukemia
[26] = test system: RXF 393 renal
[27] = test system: COLO 205 colon
[28] = test system: HOP-62 NSCLC
[29] = test system: HS 578T breast
[30] = test system: SNB-19 CNS
[31] = test system: PC-3 prostate
[32] = test system: HCT-15 colon
[33] = test system: T-47D breast
[34] = test system: NCI/ADR-RES ovarian
[35] = test system: SF-268 CNS
[36] = test system: HCC-2998 colon
[37] = test system: KM12 colon
[38] = test system: 786-0 renal
[39] = test system: OVCAR-8 ovarian
[40] = test system: NCI-H226 lung
[41] = test system: K-562 leukemia
[42] = test system: MALME-3M melanoma
[43] = test system: UO-31 renal
[44] = test system: IGROV1 ovarian
[45] = test system: OVCAR-5 ovarian
[46] = test system: MDA-MB-435
[47] = test system: HOP-92 NSCLC
[48] = test system: MCF7 breast
[49] = test system: NCI-H460 lung
[50] = test system: TK-10 renal
[51] = test system: NCI-H522 lung
[52] = test system: CCRF-CEM leukemia
[53] = test system: OVCAR-3 ovarian
[54] = test system: SK-MEL-2 melanoma
[55] = test system: HT29 colon
[56] = test system: SN12C renal
[57] = test system: DU-145 prostate

CC(C)=NNc1ncnc2c1ncn2C1OC(CO)C(O)C1O (stereo unspecified)
GI50 [1]: 381 nM
TGI [1]: > 100000 nM
GI50 [2]: 2950 nM
TGI [2]: > 73400 nM
GI50 [3]: 144 nM
TGI [3]: 2070 nM
GI50 [4]: 1210 nM
TGI [4]: 9300 nM
GI50 [5]: 509 nM
TGI [5]: > 32100 nM
GI50 [6]: 278 nM
TGI [6]: 3240 nM
GI50 [7]: 303 nM
TGI [7]: 17100 nM
GI50 [8]: 402 nM
TGI [8]: 5610 nM
GI50 [9]: 1610 nM
TGI [9]: 15400 nM
GI50 [10]: 4500 nM
TGI [10]: > 100000 nM
GI50 [11]: 529 nM
TGI [11]: > 33200 nM
GI50 [12]: 648 nM
TGI [12]: > 100000 nM
GI50 [13]: 1430 nM
TGI [13]: > 100000 nM
GI50 [14]: 1340 nM
TGI [14]: > 78100 nM
GI50 [15]: 228 nM
TGI [15]: 3250 nM
GI50 [16]: 752 nM
TGI [16]: > 100000 nM
GI50 [17]: 1480 nM
TGI [17]: 19400 nM
GI50 [18]: 2060 nM
TGI [18]: 11300 nM
GI50 [19]: 4860 nM
TGI [19]: > 100000 nM
GI50 [20]: 324 nM
TGI [20]: 4220 nM
GI50 [21]: 5750 nM
TGI [21]: > 100000 nM
GI50 [22]: 990 nM
TGI [22]: 4200 nM
GI50 [23]: 285 nM
TGI [23]: 13600 nM
GI50 [24]: 537 nM
TGI [24]: 4040 nM
GI50 [25]: 414 nM
TGI [25]: > 22000 nM
GI50 [26]: 300 nM
TGI [26]: 3540 nM
GI50 [27]: 414 nM
TGI [27]: 6310 nM
GI50 [28]: 398 nM
TGI [28]: 4210 nM
GI50 [29]: 5800 nM
TGI [29]: > 26300 nM
GI50 [30]: 1430 nM
TGI [30]: > 100000 nM
GI50 [31]: 733 nM
TGI [31]: 29100 nM
GI50 [32]: 217 nM
GI50 [33]: 542 nM
TGI [33]: 9600 nM
GI50 [34]: 442 nM
TGI [34]: > 21600 nM
GI50 [35]: 1410 nM
TGI [35]: > 100000 nM
GI50 [36]: 1940 nM
TGI [36]: > 53000 nM
GI50 [37]: 378 nM
TGI [37]: 2650 nM
GI50 [38]: 720 nM
TGI [38]: 30400 nM
GI50 [39]: 332 nM
TGI [39]: > 100000 nM
GI50 [40]: 448 nM
TGI [40]: > 100000 nM
GI50 [41]: 417 nM
TGI [41]: > 100000 nM
GI50 [42]: 11800 nM
TGI [42]: > 100000 nM
GI50 [43]: 354 nM
TGI [43]: 7680 nM
GI50 [44]: 287 nM
GI50 [45]: 1160 nM
TGI [45]: > 31100 nM
GI50 [46]: 528 nM
TGI [46]: 11700 nM
GI50 [47]: 503 nM
TGI [47]: 5270 nM
GI50 [48]: 327 nM
TGI [48]: > 51500 nM
GI50 [49]: 304 nM
GI50 [50]: 529 nM
TGI [50]: > 100000 nM
GI50 [51]: 283 nM
TGI [51]: 3240 nM
GI50 [52]: 581 nM
TGI [52]: > 100000 nM
GI50 [53]: 385 nM
TGI [53]: 1970 nM
GI50 [54]: 1810 nM
TGI [54]: 29200 nM
GI50 [55]: 268 nM
TGI [55]: > 100000 nM
GI50 [56]: 476 nM
TGI [56]: 15300 nM
GI50 [57]: 324 nM
TGI [57]: 2400 nM
